# Results: article PMC6488665 (2019)
# System: kdp c-di-AMP riboswitch transcript (5'-UTR of kdpFABC, run-off from -88 to +363 template) (RNA, riboswitch) AUAAAUCAUUCAUAAAAUUUCCAAAAAAACCUAAAAUCGCUGAGUUCCAGAAAUGGAGCGGGGGAACCAAUUUUGUGCAUCGUCACUUGGGGUGAAUCUUUCAGUUUUGAAAGUAGGGCUACUCUUUAGGCCCGAAUCCGACAGCUAACCUCGUAAGCGUUUAGAGAGGAGGUUUACUUUUUGUUGUUCAUUUUUUGAACACUGAGUAGAGCUCAGUGUUCUUUUUUAAUAUUUAAAUGGUAAAUUUUAACAAAAAAGAGGGGAUAGUUAUGUUAGAUGUUGUAAUGGUCGGGAUUUUUAUUUUAUUAGUUGCAUCGAUGGCAAGUCUUGCAAGUUGGUCAGAUAAAGUUGUGAAAGAAGGA
# Experiment: in vitro transcription termination (E. coli RNA polymerase), gel
# Conditions: 150 mM KCl, 10 mM MgCl2; 40 mM Tris-HCl pH 7.5, 37 °C; c-di-AMP 0-5 µM; termination rises 27% to 63%; functional, no constant
smiles,measurement,value
Nc1ncnc2c1ncn2[C@@H]1O[C@@H]2COP(=O)(O)O[C@H]3[C@@H](O)[C@H](n4cnc5c(N)ncnc54)O[C@@H]3COP(=O)(O)O[C@H]2[C@H]1O,binding,yes
